Assay results published in ChEMBL document CHEMBL1201862, “PubChem BioAssay data set” (2004).
Active and inactive are the calls of the source.

Key:
[1] = HEp-2 cell cytotoxicity, dose response, cytotoxicity control for RSV inhibitor project, HTS (AID 2410); type: functional; details: human respiratory syncytial virus
[2] = inhibitors of Vif binding to APOBEC3G peptide, primary screen, biochemical, TR-FRET, GST-Vif 1-94, biotin-A3G peptide, dose response retest (AID 1117319); type: functional;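 further: TR-FRET signal of purified GST-Vif binding a biotinylated A3G peptide; inhibitors lower the FRET signal by blocking Vif and A3G binding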
[3] = target: Sphingosine 1-phosphate receptor 2 (Homo sapiens, UniProt O95136); test: Dose Response Cell Based Assay for Antagonists of the S1P2 Receptor. [Related pubchem assays: 856, 736 ]; type: functional
Sphingosine 1-phosphate receptor 2, sequence (O95136 whole entry): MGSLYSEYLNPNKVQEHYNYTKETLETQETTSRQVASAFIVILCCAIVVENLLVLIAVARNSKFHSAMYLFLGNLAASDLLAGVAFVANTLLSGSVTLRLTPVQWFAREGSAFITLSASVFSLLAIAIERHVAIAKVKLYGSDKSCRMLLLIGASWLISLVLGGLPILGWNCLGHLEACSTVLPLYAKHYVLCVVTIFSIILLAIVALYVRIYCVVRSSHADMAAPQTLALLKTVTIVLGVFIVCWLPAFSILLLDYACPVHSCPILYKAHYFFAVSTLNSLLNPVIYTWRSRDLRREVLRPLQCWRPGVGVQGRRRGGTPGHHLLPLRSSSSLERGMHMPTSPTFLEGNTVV

[4] = growth suppression of PTEN-null colon cells, dose response, cell-based, HCT116 PTEN knockout (AID 1047); type: functional;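 further: HCT116 colon tumor cells with PTEN knocked out; cells exposed to compound for 60 hours before readout; potency for loss of cell viability measured by luminescence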
[5] = target: 5-hydroxytryptamine receptor 1A (Homo sapiens, UniProt P08908); type: functional
5-hydroxytryptamine receptor 1A, sequence (P08908 whole entry): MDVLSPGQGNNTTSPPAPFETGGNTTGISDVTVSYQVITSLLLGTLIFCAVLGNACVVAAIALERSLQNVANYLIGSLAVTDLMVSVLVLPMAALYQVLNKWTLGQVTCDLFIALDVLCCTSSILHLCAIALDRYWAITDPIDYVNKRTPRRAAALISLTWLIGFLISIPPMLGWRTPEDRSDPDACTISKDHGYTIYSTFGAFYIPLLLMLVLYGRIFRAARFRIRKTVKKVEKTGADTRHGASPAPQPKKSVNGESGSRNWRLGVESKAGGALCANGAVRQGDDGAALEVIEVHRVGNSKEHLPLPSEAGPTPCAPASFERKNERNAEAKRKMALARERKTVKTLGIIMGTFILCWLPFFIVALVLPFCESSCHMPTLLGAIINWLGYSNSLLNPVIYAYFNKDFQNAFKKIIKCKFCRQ

[6] = growth suppression of beta-catenin-knockout colon cells, dose response, cell-based, HCT116, human colon tumor (AID 1045); type: functional;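 further: HCT116 colon tumor cells with beta catenin knocked out; cells exposed to compound for 60 hours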
Mu-type opioid receptor = Mu-type opioid receptor (Homo sapiens, UniProt P35372); type: functional, cell-based;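 further: U2OS cells with beta-arrestin recruitment to OPRM1 by beta-gal complementation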
Mu-type opioid receptor, sequence (P35372 whole entry): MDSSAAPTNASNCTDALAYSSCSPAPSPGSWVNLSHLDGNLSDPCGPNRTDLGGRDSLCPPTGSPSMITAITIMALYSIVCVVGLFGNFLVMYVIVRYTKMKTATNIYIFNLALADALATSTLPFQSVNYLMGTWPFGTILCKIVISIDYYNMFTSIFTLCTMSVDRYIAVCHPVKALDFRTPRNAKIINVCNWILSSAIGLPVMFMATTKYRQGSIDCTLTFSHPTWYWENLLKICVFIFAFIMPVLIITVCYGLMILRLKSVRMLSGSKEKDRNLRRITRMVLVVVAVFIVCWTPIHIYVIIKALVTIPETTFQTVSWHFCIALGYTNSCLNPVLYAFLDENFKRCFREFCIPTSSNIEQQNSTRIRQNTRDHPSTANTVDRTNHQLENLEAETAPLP

[7] = target: 5-hydroxytryptamine receptor 2A (Mus musculus, UniProt P35363); type: functional, cell-based;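 further: CHO-K1 cells with tagged receptor and beta-arrestin; agonist potency measured as compound-induced activation of the receptor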
5-hydroxytryptamine receptor 2A, sequence (P35363 whole entry): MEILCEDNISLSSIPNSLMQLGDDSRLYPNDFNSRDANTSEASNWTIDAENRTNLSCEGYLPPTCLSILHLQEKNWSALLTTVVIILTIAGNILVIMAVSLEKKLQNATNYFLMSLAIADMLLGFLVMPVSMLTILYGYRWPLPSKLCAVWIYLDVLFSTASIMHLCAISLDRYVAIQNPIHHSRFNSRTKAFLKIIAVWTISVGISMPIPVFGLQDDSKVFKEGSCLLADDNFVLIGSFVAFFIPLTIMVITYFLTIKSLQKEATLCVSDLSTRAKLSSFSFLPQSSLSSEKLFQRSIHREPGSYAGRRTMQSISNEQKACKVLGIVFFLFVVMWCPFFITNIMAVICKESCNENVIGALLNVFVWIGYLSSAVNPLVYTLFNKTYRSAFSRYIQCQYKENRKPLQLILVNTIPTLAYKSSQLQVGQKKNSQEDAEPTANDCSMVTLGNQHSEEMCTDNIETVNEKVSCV

Prothrombin = Prothrombin (Homo sapiens, UniProt P00734); test: Thrombin 1536 HTS Dose Response Confirmation. [Related pubchem assays: 1046 (Thrombin 1536 HTS; hits were confirmed in this assay)]; type: functional

## O=C(Nc1ccc2c(c1)oc1ccccc12)c1cccnc1
[1]
  CC50: 46.2 µM (active)
[2]
  IC50: > 100 µM (active)

## COC(=O)c1sc2cc(C(F)(F)F)cnc2c1-c1cccs1
[3]
  IC50: > 30 µM (not active)

## CCCCc1ccc2[nH]cc(CCN)c2c1
[4]
  EC50: 10.6 µM (active)
[5]
  EC50: 1.81 µM (active)
[6]
  EC50: 12.6 µM (active)
Mu-type opioid receptor
  EC50: 92.5 µM (inactive)
[7]
  EC50: 13.3 µM (inactive)

## COc1ccc(NC(=NC(C)=O)Nc2nc(C)cc(C)n2)cc1OC
Prothrombin
  IC50: 2.95 µM (active)

## COC(=O)c1c(C)nn(-c2ccccc2)c1-n1cccc1
Prothrombin
  IC50: > 50 µM (not active)
